ChEMBL document CHEMBL4038308, “Lipophosphonoxins II: Design, Synthesis, and Properties of Novel Broad Spectrum Antibacterial Agents” (J Med Chem, 2017)
In brackets after ≈: the same amount, converted by molar mass. Activity calls are given as the source filed them. The calls are words filed in the database; no cut-off is given here.

Legend:
[1] = Pore forming activity across black lipid bilayer membranes assessed as induction of variation in membrane current by measuring pore conductance at 5 ug/ml
Escherichia coli [2] = assay: Antibacterial activity against Escherichia coli 16702 after 24 hrs by microdilution method; type: functional; conditions: Escherichia coli, 16702, 24 h
HepG2 [3] = assay: Induction of apoptosis in human HepG2 cells assessed as caspase 3/7 activation up to 80 mg/L after 4 hrs by caspase-Glo 3/7 luminescent assay; type: cell-based; conditions: hepg2, 4 h
[4] = Chemical stability of compound at 50 to 500 mg/L at pH 0.18 after 24 hrs at room temperature by LC-MS analysis; type: physicochemical; conditions: buffer, pH 0.18, 24 h
Streptococcus agalactiae = assay: Antibacterial activity against Streptococcus agalactiae after 24 hrs by microdilution method; type: functional
[5] = Chemical stability of compound at 50 to 500 mg/L at pH 5 after 24 hrs at room temperature by LC-MS analysis; type: physicochemical; conditions: buffer, pH 5, 24 h
TERT-RPE1 [6] = assay: Induction of apoptosis in human RPE1 cells assessed as caspase 3/7 activation up to 80 mg/L after 4 hrs by caspase-Glo 3/7 luminescent assay; type: cell-based; conditions: tert-rpe1, 4 h
Oryctolagus cuniculus [7] = assay: Toxicity in topically dosed rabbit assessed as skin irritation by measuring behavioral abnormalities measured up to 7 days post dose; type: organism-based; conditions: in vivo, topical_or_ocular, 168 h
Staphylococcus aureus [8] = assay: Bactericidal activity against Staphylococcus aureus CCM 4223 assessed as reduction in bacterial count at 25 mg/L after 6 hrs by time kill assay; type: functional
Staphylococcus aureus [9] = assay: Antibacterial activity against methicillin-resistant Staphylococcus aureus 4591 clinical isolates after 24 hrs by microdilution method; type: functional; conditions: Staphylococcus aureus, 4591, 24 h
Bacillus subtilis [10] = assay: Antibacterial activity against Bacillus subtilis assessed as inhibition of RNA synthesis at 1.5 mg/L after 50 mins by [3H]-uridine incorporation assay; type: functional
TERT-RPE1 [11] = assay: Cytotoxicity against human RPE1 cells assessed as reduction in cell viability after 48 hrs by ATPlite reagent based assay; conditions: tert-rpe1, 48 h
TERT-RPE1 [12] = assay: Cytotoxicity against human RPE1 cells assessed as disruption of cell membrane integrity after 4 hrs by CytoTox-ONE-based assay; conditions: tert-rpe1, 4 h
Mus musculus [13] = assay: Toxicity in ICR mouse assessed as mortality up to 2000 mg/kg, po administered as single dose measured for 2 weeks; type: organism-based; conditions: in vivo, 336 h
Escherichia coli [14] = assay: Bactericidal activity against Escherichia coli CCM 3954 assessed as reduction in bacterial count at 12.5 mg/L after 45 mins by time kill assay; type: functional
[15] = system: Staphylococcus epidermidis; assay: Induction of cytoplasmic membrane permeabilization in Staphylococcus epidermidis 8700/B assessed as increase in propidium iodide fluorescence intensity at 5 mg/L by spectrofluorometric analysis; type: functional
Burkholderia multivorans = assay: Antibacterial activity against Burkholderia multivorans after 24 hrs by microdilution method; type: functional
BJ = assay: Cytotoxicity against human BJ cells assessed as reduction in cell viability after 48 hrs by ATPlite reagent based assay
Staphylococcus aureus [16] = assay: Induction of cytoplasmic membrane permeabilization in Staphylococcus aureus CCM 4223 assessed as increase in propidium iodide fluorescence intensity at 5 mg/L by spectrofluorometric analysis; type: functional
Escherichia coli [17] = assay: Bactericidal activity against Escherichia coli CCM 3954 assessed as reduction in bacterial count at 25 mg/L after 30 mins by time kill assay; type: functional
[18] = Chemical stability of compound at 50 to 500 mg/L at pH 8.8 after 24 hrs at room temperature by LC-MS analysis; type: physicochemical; conditions: buffer, pH 8.8, 24 h
Bacillus subtilis [19] = assay: Antibacterial activity against Bacillus subtilis assessed as inhibition of protein synthesis at 1.5 mg/L after 50 mins by [35S]-methionine incorporation assay; type: functional
Pseudomonas aeruginosa [20] = assay: Antibacterial activity against Pseudomonas aeruginosa CCM 3955 after 24 hrs by microdilution method; type: functional; conditions: CCM 3955, 24 h
Salmonella enteritidis = assay: Antibacterial activity against Salmonella enteritidis S2-25 after 24 hrs by microdilution method; type: functional, Salmonella enterica subsp. enterica serovar Enteritidis; conditions: Salmonella enterica, S2-25, 24 h
[21] = system: Staphylococcus epidermidis; assay: Antibacterial activity against Staphylococcus epidermidis 8700/B after 24 hrs by microdilution method; type: functional
[22] = Chemical stability of compound at 50 to 500 mg/L at pH 8.8 after 24 hrs at 37 degC by LC-MS analysis; type: physicochemical; conditions: buffer, pH 8.8, 24 h
[23] = Critical micellar concentration of the compound by capillary electrophoresis method
Acinetobacter baumannii = assay: Antibacterial activity against Acinetobacter baumannii A3-08 after 24 hrs by microdilution method; type: functional; conditions: A3-08, 24 h
[24] = system: Stenotrophomonas maltophilia; assay: Antibacterial activity against Stenotrophomonas maltophilia S2-23 after 24 hrs by microdilution method; type: functional; conditions: S2-23, 24 h
Pseudomonas aeruginosa [25] = assay: Induction of cytoplasmic membrane permeabilization in Pseudomonas aeruginosa CCM 3955 assessed as increase in propidium iodide fluorescence intensity at 5 mg/L by spectrofluorometric analysis; type: functional
TERT-RPE1 [26] = assay: Cytotoxicity against human RPE1 cells assessed as disruption of cell membrane integrity at >80 mg/L after 4 hrs by CytoTox-ONE-based assay; conditions: tert-rpe1, 4 h
Bacillus subtilis [27] = assay: Antibacterial activity against Bacillus subtilis assessed as inhibition of peptidoglycan synthesis at 1.5 mg/L after 50 mins by [3H]-N-acetylglucosamine incorporation assay; type: functional
Oryctolagus cuniculus [28] = assay: Toxicity in topically applied rabbit assessed as skin irritation measured up to 14 days post dose; conditions: in vivo, topical_or_ocular, 336 h
Mus musculus [29] = assay: Toxicity in ICR mouse assessed as body weight loss up to 2000 mg/kg, po administered as single dose measured for 2 weeks; type: organism-based; conditions: in vivo, 336 h
Oryctolagus cuniculus [30] = assay: Toxicity in topically applied rabbit assessed as skin irritation measured by measuring physiological abnormalities up to 7 days post dose; conditions: in vivo, topical_or_ocular, 168 h
Enterococcus faecalis = assay: Antibacterial activity against Enterococcus faecalis CCM 4224 after 24 hrs by microdilution method; type: functional; conditions: CCM 4224, 24 h
Staphylococcus aureus [31] = assay: Bactericidal activity against Staphylococcus aureus CCM 4223 assessed as reduction in bacterial count at 6.25 to 12.5 mg/L after 24 hrs by time kill assay; type: functional
[32] = system: Staphylococcus haemolyticus; assay: Antibacterial activity against fluoroquinolne-resistant Staphylococcus haemolyticus 16568 after 24 hrs by microdilution method; type: functional; conditions: Staphylococcus haemolyticus, 16568, 24 h
Staphylococcus aureus [33] = assay: Antibacterial activity against Staphylococcus aureus CCM 4223 after 24 hrs by microdilution method; type: functional; conditions: CCM 4223, 24 h
Bacillus subtilis [34] = assay: Antibacterial activity against Bacillus subtilis assessed as inhibition of DNA synthesis at 1.5 mg/L after 50 mins by [3H]thymidine incorporation assay; type: functional
HepG2 [35] = assay: Cytotoxicity against human HepG2 cells assessed as reduction in cell viability after 48 hrs by ATPlite reagent based assay; conditions: hepg2, 48 h
[36] = Chemical stability of compound at 50 to 500 mg/L at pH 0.18 after 24 hrs at 37 degC by LC-MS analysis; type: physicochemical; conditions: buffer, pH 0.18, 24 h
Bacillus subtilis [37] = assay: Antibacterial activity against Bacillus subtilis after 24 hrs by microdilution method; type: functional
J774.A1 = assay: Cytotoxicity against mouse J774A.1 cells assessed as damage to cell membrane by measuring propidium iodide intake at 5 mg/L by spectrofluorometric analysis; type: cell-based
Lipid bilayer = assay: Binding affinity to DOPG large unilamellar vesicle assessed as carboxyfluorescein leakage at 10 mg/L after 20 secs by fluorescence-based assay relative to control
[38] = Chemical stability of compound at 50 to 500 mg/L at pH 5 after 24 hrs at 37 degC by LC-MS analysis; type: physicochemical; conditions: buffer, pH 5, 24 h
Escherichia coli [39] = assay: Induction of cytoplasmic membrane permeabilization in Escherichia coli CCM 3954 assessed as increase in propidium iodide fluorescence intensity at 5 mg/L by spectrofluorometric analysis; type: functional
Escherichia coli [40] = assay: Antibacterial activity against Escherichia coli CCM 3954 after 24 hrs by microdilution method; type: functional; conditions: CCM 3954, 24 h
Enterococcus faecium = assay: Antibacterial activity against vancomycin-resistant Enterococcus faecium 419/ana clinical isolates after 24 hrs by microdilution method; type: functional
HepG2 [41] = assay: Cytotoxicity against human HepG2 cells assessed as disruption of cell membrane integrity after 4 hrs by CytoTox-ONE-based assay; conditions: hepg2, 4 h
Bacillus subtilis [42] = assay: Antibacterial activity against Bacillus subtilis assessed as inhibition of plasma membrane lipids synthesis at 1.5 mg/L after 50 mins by [3H]-sodium acetate incorporation assay; type: functional
Pseudomonas aeruginosa [43] = assay: Antibacterial activity against Pseudomonas aeruginosa 16575 after 24 hrs by microdilution method; type: functional; conditions: Pseudomonas aeruginosa, 16575, 24 h

## CCCCCCCCCCCCCCCOP(=O)(CCN(CCCNC(=N)N)CCCNC(=N)N)OC[C@H]1O[C@@H](n2ccc(=O)[nH]c2=O)[C@H](O)[C@@H]1O (some centres not stated)
[1]
  Activity: 23 to 168 pS
Escherichia coli [2]
  MIC: 0.78 µg/mL (≈ 1.03 µM)
HepG2 [3]
  Activity: Non-Toxic
[4]
  Stability: Stable
Streptococcus agalactiae
  MIC: 1.56 µg/mL (≈ 2.05 µM)
[5]
  Stability: Stable
TERT-RPE1 [6]
  Activity: Non-Toxic
Oryctolagus cuniculus [7]
  Activity: Non-Toxic
Staphylococcus aureus [8]
  Activity: Active
Staphylococcus aureus [9]
  MIC: 3.13 µg/mL (≈ 4.12 µM)
Bacillus subtilis [10]
  inhibition: inactive
TERT-RPE1 [11]
  Activity: 39.8 mg/L
TERT-RPE1 [12]
  Activity: Non-Toxic
Mus musculus [13]
  Activity: Non-Toxic
Escherichia coli [14]
  Activity: Active
[15]
  Activity: Active
Burkholderia multivorans
  MIC: 25 µg/mL (≈ 32.9 µM)
BJ
  Activity: 29.6 mg/L
Staphylococcus aureus [16]
  Activity: Active
Escherichia coli [17]
  Activity: Active
[18]
  Stability: Stable
Bacillus subtilis [19]
  inhibition: inactive
Pseudomonas aeruginosa [20]
  MIC: 0.78 µg/mL (≈ 1.03 µM)
Salmonella enteritidis
  MIC: 1.56 µg/mL (≈ 2.05 µM)
[21]
  MIC: 1.56 µg/mL (≈ 2.05 µM)
[22]
  Stability: Stable
[23]
  CMC: 1.42 mM
Acinetobacter baumannii
  MIC: 3.13 µg/mL (≈ 4.12 µM)
[24]
  MIC: 3.13 µg/mL (≈ 4.12 µM)
Pseudomonas aeruginosa [25]
  Activity: Active
TERT-RPE1 [26]
  Activity: Non-Toxic
Bacillus subtilis [27]
  inhibition: inactive
Oryctolagus cuniculus [28]
  Activity: Non-Toxic
Mus musculus [29]
  Activity: Non-Toxic
Oryctolagus cuniculus [30]
  Activity: Non-Toxic
Enterococcus faecalis
  MIC: 25 µg/mL (≈ 32.9 µM)
Staphylococcus aureus [31]
  Activity: Active
[32]
  MIC: 1.56 µg/mL (≈ 2.05 µM)
Staphylococcus aureus [33]
  MIC: 3.13 µg/mL (≈ 4.12 µM)
Bacillus subtilis [34]
  inhibition: inactive
HepG2 [35]
  Activity: 36.7 mg/L
[36]
  Stability: Stable
Bacillus subtilis [37]
  MIC: 0.39 µg/mL (≈ 0.513 µM)
J774.A1
  Activity: Non-Toxic
Lipid bilayer
  Activity: < 85%
[38]
  Stability: Stable
Escherichia coli [39]
  Activity: Active
Escherichia coli [40]
  MIC: 0.78 µg/mL (≈ 1.03 µM)
Enterococcus faecium
  MIC: 50 µg/mL (≈ 65.8 µM)
HepG2 [41]
  Activity: Non-Toxic
Bacillus subtilis [42]
  inhibition: inactive
Pseudomonas aeruginosa [43]
  MIC: 1.56 µg/mL (≈ 2.05 µM)
